Source: patent publication EP0752872B1, “NADH OXIDASE AS A TARGET IN DIAGNOSIS AND THERAPY” (Morré, D. James, priority 1994, dated 1995)

Legend:
[1] = test system: circulating NADH oxidase in the serum; test: NADH oxidase activity of human serum; type: biochemical
Description: (§1) Spectrophometric assay of NADH oxidase. NADH oxidase activity was determined as the disappearance of NADH measured at 340 nm in a reaction mixture containing 25 mM Tris-MES buffer (pH 7.2), 1 mM KCN to inhibit the low levels of contaminating mitochondrial oxidase activity, and 150 µM NADH at 37°C with constant stirring. Activity was measured using a Hitachi U3210 spectrophotometer with continuous recording over two intervals of 5 min each. A millimolar extinction coefficient of 6.22 was used to determine specific activity.

[2] = molecular target: T1, NADH oxidase from HeLa cell plasma membranes (Homo sapiens, UniProt Q16206); test: Spectrophotometric NADH oxidase assay, HeLa plasma membranes; type: biochemical
T1 sequence (Q16206 1-610): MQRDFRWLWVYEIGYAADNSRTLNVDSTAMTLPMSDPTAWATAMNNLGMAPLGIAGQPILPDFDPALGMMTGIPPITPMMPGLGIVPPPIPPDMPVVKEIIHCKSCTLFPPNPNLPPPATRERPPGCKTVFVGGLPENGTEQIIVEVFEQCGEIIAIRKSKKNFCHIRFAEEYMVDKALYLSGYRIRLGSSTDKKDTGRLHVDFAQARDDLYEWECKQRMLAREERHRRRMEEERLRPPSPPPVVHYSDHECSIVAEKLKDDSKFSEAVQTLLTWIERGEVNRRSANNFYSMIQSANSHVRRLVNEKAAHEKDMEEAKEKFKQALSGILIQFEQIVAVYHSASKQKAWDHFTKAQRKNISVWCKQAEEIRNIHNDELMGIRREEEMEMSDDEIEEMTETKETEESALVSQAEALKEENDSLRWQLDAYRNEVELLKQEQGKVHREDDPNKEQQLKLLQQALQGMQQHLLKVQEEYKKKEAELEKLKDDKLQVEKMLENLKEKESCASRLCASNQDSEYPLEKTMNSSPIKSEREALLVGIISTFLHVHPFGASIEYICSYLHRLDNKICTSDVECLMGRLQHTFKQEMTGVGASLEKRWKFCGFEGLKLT
Description: Purification of plasma membranes from HeLa cells. HeLa cells were grown as suspension cultures in minimum essential medium (MEM) supplemented with horse serum, diferric transferrin and heparin. Cells were collected by centrifugation for 6 to 15 min at 1,000 to 3,000 rpm. The cell pellets were resuspended in 0.2 mM EDTA in 1 mM NaHCO3 in an approximate ratio of 1 ml per 10^8 cells and incubated on ice for 10 to 30 min to swell the cells. Homogenization was with a Polytron Homogenizer for 30 to 40 sec at 10,500 rpm using a PT-PA 3012/23 or ST-probe in 7 to 8 ml aliquots. To estimate breakage, the cells are monitored by light microscopy before and after homogenization. […]
The homogenates were centrifuged for 10 min at 1,000 rpm (175 g) to remove unbroken cells and nuclei and the supernatant was centrifuged a second time at 1.4 x 10^6 g min (e.g. 1 h at 23,500 g) to prepare a plasma membrane enriched microsome fraction. […] The purity of the plasma membrane was determined to be > 90% by electron microscope morphometry. […]
Spectrophometric assay of NADH oxidase. NADH oxidase activity was determined as the disappearance of NADH measured at 340 nm in a reaction mixture containing 25 mM Tris-MES buffer (pH 7.2), 1 mM KCN to inhibit the low levels of contaminating mitochondrial oxidase activity, and 150 µM NADH at 37°C with constant stirring. […]

normal rat kidney cells = test: Growth of normal rat kidney cells; type: cell-based
[3] = test system: plasma membrane NADH oxidase; test: Spectrophotometric NADH oxidase assay, rat liver plasma membranes (normal cells); type: biochemical
Description: Purification of plasma membranes from rat liver. A 5000 x g pellet from the preparation of Golgi apparatus (Morré (1971) Meth. Enzymol. 22, 130-148) was the starting material. The fluffy layer which contains the Golgi apparatus fraction was mixed, withdrawn and excluded from the plasma membrane preparations. Cold 1 mM NaHCO3 (5 ml) was added to each tube and the friable yellow-brown upper part of the pellet was resuspended with a pen-brush, leaving the reddish tightly packed bottom part of the pellet undisturbed. The resuspended material was homogenized in aliquots of 5 ml each in a 30 ml stainless steel homogenizer (Duragrind) 20 times by hand. The homogenates were combined, diluted with cold 1 mM NaHCO3 (1:1 dilution), and centrifuged at 6000 x g in a HB rotor for 15 min. The supernatant was discarded and the pellet was used for the two-phase separation (Morré & Morré (1989) BioTechniques 7:946-958).
The two-phase system contained 6.4% (w/w) Dextran T-500 (Pharmacia), 6.4% (w/w) polyethylene glycol) 3350 (Fisher), and 5 mM potassium phosphate buffer (pH 7.2) (Morré & Morré, 1989, supra). The homogenate (1 g) was added to the two-phase system and the weight of the system was brought to 8 g with distilled water. The tubes were inverted vigorously for 40 times in the cold (4°C). The phases were separated by centrifugation at 750 rpm (150 x g) in a Sorvall HB 4 rotor for 5 min. The upper phases were carefully withdrawn with a pasteur pipette, divided in half and transferred into 40 ml plastic centrifuge tubes and diluted with cold 1 mM NaHCO3. The purified plasma membranes were collected by centrifugation at 10,000 x g in a HB rotor for 30 min. Plasma membrane pellets were resuspended in 50 mM Tris-Mes buffer (pH 7.2) and stored at -70°C. Proteins were determined using the bicinchoninic acid (BCA) assay (Smith et al. (1985) Anal. Biochem. […]: 76-85) with bovine serum albumin as standard.
as §1

For `COc1cc(CNC(=O)CCCC/C=C/C(C)C)ccc1O` [capsaicin], which “NADH oxidase activities of human serum, Mean” value [1] is on record?
Its value is 0.56.

What about the “Ratio, Mean” value [1] of the same compound?
Its value is 0.97.

And the “inhibition of NADH oxidase activity (in words)” value [2]?
Its value is “nearly completely inhibited”.

What about the “concentration at which growth is inhibited” value (normal rat kidney cells) of the same compound?
Its value is > 10^-5 M.

What about the “effect on NADH oxidase activity (in words)” value [3] of the same compound?
The value was “no effect”.
